# Results: US20090239757A1, “Control Sequences Responding to AMP and Uses Thereof” (priority 2004, published 2009)
# Residues, ends and D or L forms follow the SMILES beside them.
# System: E. coli TOP10
# Assay: microarray transcription profile of E. coli TOP10 expressing Novispirin G10 (pDRS5-novispirin, arabinose induced) relative to control strain pBAD gIII A
# Format: cell-based, Escherichia coli
# Description: In order to obtain a transcriptional profile of E. coli expressing Novispirin G10, 2×10 mL sterile LB media (10 g/L Bactotryptone, 5 g/L Yeast extract, and 10 g/L NaCl) containing 100 mg/L ampicillin was inoculated with E. coli TOP10 harbouring pDRS5-novispirin and pBAD gIII A, respectively. These cultures were grown overnight at 37° C. at 180 rpm. The overnight cultures were diluted 1/100 into fresh sterile RM media (2% Casamino Acids, 0.2% glycerol, 1 mM MgCl2, 0.1 mM thiamine, 6 g/L Na2HPO4, 3 g/L KH2PO4.2H2O, 0.5 g/L NaCl, 0.1 g/L NH4Cl at pH 7.4) supplemented with 100 mg/L ampicillin and 0.1% arabinose. 100 mL of each culture was grown at 37° C., 240 rpm for 4.5 hours before being harvested by poured into centrifugation tubes containing 10 mL pre-frozen milliQ water and immediate centrifugation at 4200 g for 15 minutes at 4° C. Immediately hereafter, the supernatant was decanted and the cell […] was frozen at −20° C. for storage until RNA preparation was initiated.
# Total RNA was isolated from the two E. coli (expressing either Novispirin G10 or a control peptide) cultures by use of the High Pure RNA Isolation kit (Roche, cat #1 828 665) according to the manufacturers instructions. Residual DNA was removed on-column with RNase-free DNase. Labelled samples were prepared from 30 μg of total bacterial RNA. Fluorescent first strand cDNA was prepared by random primed reverse transcription (Superscript II; Life Technologies) by use of random hexamers for cDNA synthesis. 2 μl (20 μg) of random primer was mixed with 15 μl (30 μg) of total RNA, incubated for 5 min at 70° C., and cooled on ice. To each sample was added 5× first strand buffer (6 μl), 0.1 M DTT (3 μl), dNTP mix (5 mM dATP, dGTP and dTTP and 2 mM dCTP) (1 μl), RNaseOut (1 μl), Superscript II reverse transcriptase (2 μl) and Cy-dCTP (3 μl). Reverse transcription was carried out at 42° C. for 1 hr. RNA was removed by addition of 10 μl NaOH (1 M) and incubation at 65° C. for 10 min. The samples were neutralised by addition of 10 μl HCl (1 M). Cy3 and Cy5 cDNA samples were mixed and immediately purified with a GFX PCR DNA and Gel Band Purification Kit (Amersham Biosciences).
# Slides were pre-hybridised at 42° C. for 45 min in a solution containing 4×SSC+0.5% SDS+1% BSA and dried by centrifugation. Hybridizations were in a volume of 25 μl under a supported cover slip at 42° C. for 16-18 h at high humidity. The hybridisation mixture was labelled cDNA in a formamide-based hybridisation buffer (MWG—supplied with the pan-arrays). Cover slip and supports were gently removed (2×SSC in a wash tray) and arrays were washed by immersion into 2×SSC+0.1% SDS for 5 min, 1×SSC+0.1% SDS for 5 min, 0.5×SSC for 5 min and 1× millipore water for 10 sec and dried by centrifugation. Slides were scanned on a GMS 418 scanner to detect Cy3 and Cy5 fluorescence. Data analysis was carried out using ImaGene 5.0 and GeneSight 3.5 from BioDiscovery (www.biodiscovery.com). Two biological replicate experiments with four replicate hybridisations in each experiment were carried out for generation of data.
# Pan E. coli K12 Arrays from MWG Biotech were used in this study (lot No.: 020206). The 4239 E. coli K12 specific oligonucleotide probes present on this glass-based DNA chip represent the complete Escherichia coli (K12) genome
# Gene expression data was analyzed using the GeneSight 4.1.5 software from BioDiscovery. Data was prepared using local background correction, removal of flagged spots (contaminated background or signal), floor value raising data to a minimum value of 20, calculation of ratio, log(2) transformation of ratios, print-tip lowess normalization, and finally combination of replicate spot.
# [1] = confidence level of 90%, relative to control strain expressing a peptide without antimicrobial activity
structure (smiles),measurement,setting,value
CC[C@H](C)[C@H](NC(=O)CNC(=O)[C@H](CCCCN)NC(=O)[C@H](CCCNC(=N)N)NC(=O)[C@@H](NC(=O)[C@@H](NC(=O)[C@H](CCCNC(=N)N)NC(=O)[C@H](CCCNC(=N)N)NC(=O)[C@H](CC(C)C)NC(=O)[C@H](CC(N)=O)NC(=O)[C@@H](N)CCCCN)[C@@H](C)CC)[C@@H](C)CC)C(=O)N[C@@H](Cc1c[nH]cn1)C(=O)N[C@H](C(=O)N[C@H](C(=O)N[C@@H](CCCCN)C(=O)N[C@@H](CCCCN)C(=O)N[C@@H](Cc1ccc(O)cc1)C(=O)NCC(=O)O)[C@@H](C)CC)[C@@H](C)CC [Novispirin G10] (H-KNLRRIIRKGIHIIKKYG-OH; N-terminus assumed),"ratio, gene tra8_1",,−4.3
same,"ratio, gene trpD",,−3.4
same,"ratio, gene tsx",,−3.3
same,"ratio, gene ugpA",,3.3
same,"ratio, gene uvrY",,3.3
same,"ratio, gene uxuB",,3.5
same,"ratio, gene vacJ",,3.0
same,"ratio, gene wcaD",,−2.7
same,"ratio, gene wcaJ",,−2.8
same,"ratio, gene wza",,3.3
same,"ratio, gene xasA",,24.9
same,"ratio, gene yaaI",,2.9
same,"ratio, gene yabI",,−2.6
same,"ratio, gene yafC",,−5.1
same,"ratio, gene yagT",,3.3
same,"ratio, gene yaiH",,6.1
same,"ratio, gene yaiP",,−3.9
same,"ratio, gene ybaP",,8.4
same,"ratio, gene ybaS",,8.8
same,"ratio, gene ybaY",,9.9
same,"ratio, gene ybbN",,−2.6
same,"ratio, gene ybbY",,4.4
same,"ratio, gene ybdS",,4.2
same,"ratio, gene ybeK",,−3.0
same,"ratio, gene ybeL",,3.6
same,"ratio, gene ybfA",,3.5
same,"ratio, gene ybgA",,4.2
same,"ratio, gene ybhL",,9.3
same,"ratio, gene ybhP",,−5.1
same,"ratio, gene ybhS",,−2.6
same,"ratio, gene ybiU",,−3.7
same,"ratio, gene ybiX",,−2.7
same,"ratio, gene ybjC",,−2.7
same,"ratio, gene ybjG",,5.8
same,"ratio, gene ybjN",,−2.7
same,"ratio, gene ybjX",,5.3
same,"ratio, gene ycaC",,7.4
same,"ratio, gene ycbQ",,−5.0
same,"ratio, gene yccD",,4.9
same,"ratio, gene yccM",,2.8
same,"ratio, gene ycdQ",,−2.8
same,"ratio, gene ycfA",,−3.4
same,"ratio, gene ycfH",,5.3
same,"ratio, gene ycfR",,2.8
same,"ratio, gene ycgB",,4.5
same,"ratio, gene ycgY",,3.0
same,"ratio, gene yciE",,5.4
same,"ratio, gene yciI",,5.1
same,"ratio, gene yciR",,6.5
same,"ratio, gene ycjF",,−2.7
same,"ratio, gene yddM",,3.0
same,"ratio, gene ydhO",,−2.8
same,"ratio, gene yeaG",,12.0
same,"ratio, gene yeaH",,2.8
same,"ratio, gene yeaP",,−2.6
same,"ratio, gene yeaQ",,6.9
same,"ratio, gene yedU",,3.7
same,"ratio, gene yehT",,−4.0
same,"ratio, gene yehX",,5.6
same,"ratio, gene yehY",,4.2
same,"ratio, gene yehZ",,7.1
same,"ratio, gene yeiQ",,−2.7
same,"ratio, gene yfbM",,4.9
same,"ratio, gene yfcI",,3.1
same,"ratio, gene yfiA",,−3.6
same,"ratio, gene yfiD",,−2.6
same,"ratio, gene ygaG",,3.8
same,"ratio, gene ygaH",,−3.3
same,"ratio, gene ygaM",,7.9
same,"ratio, gene ygaU",,5.1
same,"ratio, gene ygcO",,−5.7
same,"ratio, gene ygeF",,5.2
same,"ratio, gene ygfQ",,3.7
same,"ratio, gene yggH",,5.7
same,"ratio, gene ygiA",,4.2
same,"ratio, gene ygiW",,5.2
same,"ratio, gene yhaF",,−2.6
same,"ratio, gene yhcO",,4.4
same,"ratio, gene yhfG",,3.4
same,"ratio, gene yhgE",,−2.9
same,"ratio, gene yhhZ",,−2.6
same,"ratio, gene yhiE",,3.9
same,"ratio, gene yhiF",,2.9
same,"ratio, gene yhiW",,3.0
same,"ratio, gene yhjX",,−9.6
same,"ratio, gene yi81_1",,−3.2
same,"ratio, gene yiaG",,10.1
same,"ratio, gene yiaL",,−2.9
same,"ratio, gene yibI",,−3.1
same,"ratio, gene yidZ",,−3.3
same,"ratio, gene yieJ",,−2.9
same,"ratio, gene yieN",,−3.8
same,"ratio, gene yigW_1",,3.8
same,"ratio, gene yihL",,−8.0
same,"ratio, gene yihM",,−3.3
same,"ratio, gene yihQ",,3.9
same,"ratio, gene yijC",,4.1
same,"ratio, gene yjbF",,−3.5
same,"ratio, gene yjbO",,8.3
same,"ratio, gene yjcF",,3.1
same,"ratio, gene yjdB",,4.5
same,"ratio, gene yjiG",,3.1
same,"ratio, gene yjiZ",,3.8
same,"ratio, gene ykgE",,−4.2
same,"ratio, gene ykgF",,−3.1
same,"ratio, gene ylbB",,−3.1
same,"ratio, gene ylcC",,−3.6
same,"ratio, gene ylcD",,8.8
same,"ratio, gene ymdD",,−4.3
same,"ratio, gene ymfJ",,−3.4
same,"ratio, gene ymfM",,5.1
same,"ratio, gene ymgE",,3.9
same,"ratio, gene yncB",,3.4
same,"ratio, gene ynfL",,5.7
same,"ratio, gene yoaE",,2.8
same,"ratio, gene yodB",,6.2
same,"ratio, gene yohC",,12.0
same,"ratio, gene yohF",,2.8
same,"ratio, gene yohM",,7.7
same,"ratio, gene yqcD",,−3.3
same,"ratio, gene yqgA",,−2.9
same,"ratio, gene yqhD",,−2.6
same,"ratio, gene yqhE",,4.0
same,"ratio, gene yqjC",,3.2
same,"ratio, gene yqjD",,5.8
same,"ratio, gene yqjE",,3.9
same,"ratio, gene yqjF",,3.6
same,"ratio, gene yqjG",,2.9
same,"ratio, gene yrbF",,3.1
same,"ratio, gene yrfG",,−2.6
same,"ratio, gene ysgA",,2.8
same,"Fold, gene ais",AMP resistance,14.1
same,"Fold, gene b2253",AMP resistance,8.4
same,"Fold, gene b2254",AMP resistance,5.5
same,"Fold, gene b2256",AMP resistance,4.0
same,"Fold, gene crcA",AMP resistance,11.7
same,"Fold, gene Asr",Acid shock,19.2
same,"Fold, gene Slp",Acid shock,3.6
same,"Fold, gene dksA",Acid shock,4.1
same,"Fold, gene dps",Acid shock,4.4
same,"Fold, gene gabP",Acid shock,8.2
same,"Fold, gene gabT",Acid shock,6.5
same,"Fold, gene gadC",Acid shock,24.9
same,"Fold, gene gadE",Acid shock,3.9
same,"Fold, gene gadW",Acid shock,3.0
same,"Fold, gene hdeA",Acid shock,7.7
same,"Fold, gene hdeB",Acid shock,7.9
same,"Fold, gene hdeD",Acid shock,4.3
same,"Fold, gene nmpC",Acid shock,−6.6
same,"Fold, gene ybaS",Acid shock,8.8
same,"Fold, gene ycaC",Acid shock,7.4
same,"Fold, gene ydiZ",Acid shock,9.1
same,"Fold, gene yeaQ",Acid shock,6.9
same,"Fold, gene yebV",Acid shock,6.9
same,"Fold, gene yiaG",Acid shock,10.1
same,"Fold, gene amyA",Carbon metabolism,5.8
same,"Fold, gene b2097",Carbon metabolism,8.1
same,"Fold, gene glk",Carbon metabolism,3.4
same,"Fold, gene sfcA",Carbon metabolism,5.8
same,"Fold, gene sfsA",Carbon metabolism,6.4
same,"Fold, gene talA",Carbon metabolism,11.7
same,"Fold, gene tktB",Carbon metabolism,26.5
same,"Fold, gene clpB",Heat shock,−3.6
same,"Fold, gene dnaJ",Heat shock,−3.0
same,"Fold, gene dnaK",Heat shock,−2.8
same,"Fold, gene grpE",Heat shock,−3.0
same,"Fold, gene hslU",Heat shock,−3.2
same,"Fold, gene hslV",Heat shock,−3.0
same,"Fold, gene ibpB",Heat shock,−6.5
same,"Fold, gene lon",Heat shock,−2.9
same,"Fold, gene mopA",Heat shock,−3.6
same,"Fold, gene mopB",Heat shock,−9.1
same,"Fold, gene hemL",Mg^2+-stimulon,8.3
same,"Fold, gene mgrB",Mg^2+-stimulon,4.6
same,"Fold, gene mgtA",Mg^2+-stimulon,7.5
same,"Fold, gene nagA",Mg^2+-stimulon,3.7
same,"Fold, gene phoP",Mg^2+-stimulon,2.8
same,"Fold, gene phoQ",Mg^2+-stimulon,3.7
same,"Fold, gene rstB",Mg^2+-stimulon,3.6
same,"Fold, gene nagB",Mg^2+-stlmulon(?),8.8
same,"Fold, gene narU",Nitrogen assimilation,15.1
same,"Fold, gene narX",Nitrogen assimilation,−4.0
same,"Fold, gene narY",Nitrogen assimilation,11.0
same,"Fold, gene narZ",Nitrogen assimilation,4.9
same,"Fold, gene nirB",Nitrogen assimilation,−2.9
same,"Fold, gene nirC",Nitrogen assimilation,−3.0
same,"Fold, gene nirD",Nitrogen assimilation,−5.7
same,"Fold, gene nrfA",Nitrogen assimilation,−12.7
same,"Fold, gene bolA",Osmotic shock,13
same,"Fold, gene dacC",Osmotic shock,3.6
same,"Fold, gene katE",Osmotic shock,9.9
same,"Fold, gene osmC",Osmotic shock,7.2
same,"Fold, gene osmE",Osmotic shock,11.7
same,"Fold, gene osmY",Osmotic shock,6.4
same,"Fold, gene otsA",Osmotic shock,5.2
same,"Fold, gene otsB",Osmotic shock,5.6
same,"Fold, gene proW",Osmotic shock,7.9
same,"Fold, gene yehX",Osmotic shock,5.6
same,"Fold, gene yehY",Osmotic shock,4.2
same,"Fold, gene yehZ",Osmotic shock,7.1
same,"Fold, gene pspA",Phage shock,6.7
same,"Fold, gene pspB",Phage shock,6.9
same,"Fold, gene pspC",Phage shock,15.8
same,"Fold, gene pspD",Phage shock,13.5
same,"Fold, gene pspE",Phage shock,9.4
same,"Fold, gene sfmC",Protein folding,11.4
same,"Fold, gene aer",Redox,14.3
same,"Fold, gene appB",Redox,47.2
same,"Fold, gene appC",Redox,3.5
same,"Fold, gene ndh",Redox,3.1
same,number of genes down-regulated,[1],144 genes
same,number of genes up-regulated,[1],200 genes
